Data: PubChem BioAssay AID328 (DTP/NCI, 2004)
“And” between values parts separate entries of the source, which are not always exact repeats. Equal values may be shown once. Toxic doses and inconclusive results are not listed.

Tested on: BDF1 mice, P388 leukemia ip, median survival T/C
Test: NCI In Vivo Anticancer Drug Screen. Data for tumor model P388 Leukemia (intraperitoneal) in B6D2F1 (BDF1) mice
Conditions: endpoint: median survival time, higher = longer survival
Procedure, shortened: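 Reported as T/C, where T is the survival measurement in dosed animals and C the same measurement in vehicle controls.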

[1] = dose: 100.0 mg/kg/injection, schedule: Q04DX003 (ip), vehicle: saline
[2] = dose: 25.0 mg/kg/injection, schedule: Q01DX009 (ip), vehicle: saline with Tween-80
[3] = dose: 50.0 mg/kg/injection, schedule: Q01DX009 (ip), vehicle: saline with Tween-80
[4] = dose: 200.0 mg/kg/injection, schedule: Q01DX009 (ip), vehicle: saline with Tween-80
[5] = dose: 100.0 mg/kg/injection, schedule: Q04DX003 (ip), vehicle: saline with Tween-80
[6] = dose: 200.0 mg/kg/injection, schedule: Q04DX003 (ip), vehicle: saline with Tween-80
[7] = dose: 400.0 mg/kg/injection, schedule: Q04DX003 (ip), vehicle: saline with Tween-80
[8] = dose: 25.0 mg/kg/injection, schedule: Q01DX009 (ip), vehicle: water
[9] = dose: 50.0 mg/kg/injection, schedule: Q01DX009 (ip), vehicle: water
[10] = dose: 100.0 mg/kg/injection, schedule: Q01DX009 (ip), vehicle: water
[11] = dose: 200.0 mg/kg/injection, schedule: Q01DX009 (ip), vehicle: water
[12] = dose: 400.0 mg/kg/injection, schedule: Q01DX009 (ip), vehicle: water
[13] = dose: 100.0 mg/kg/injection, schedule: Q01DX009 (ip), vehicle: saline with Tween-80
[14] = dose: 400.0 mg/kg/injection, schedule: Q01DX009 (ip), vehicle: saline with Tween-80

O=C(CNC(=O)c1ccc(C(=O)NCC(=O)Nc2ccc(C3=NCCCN3)cc2)cc1)Nc1ccc(C2=NCCCN2)cc1
T/C (dose: 11.0 mg/kg/injection, schedule: Q04DX003 (ip), vehicle: saline): 100 % of control | T/C (dose: 16.0 mg/kg/injection, schedule: Q04DX003 (ip), vehicle: saline): 113 % of control | T/C (dose: 25.0 mg/kg/injection, schedule: Q01DX001 (ip), vehicle: Klucel (hydroxypropylcellulose) (HPC)): 96 % of control | T/C (dose: 50.0 mg/kg/injection, schedule: Q01DX001 (ip), vehicle: Klucel (hydroxypropylcellulose) (HPC)): 103 % of control | T/C (dose: 66.0 mg/kg/injection, schedule: Q04DX003 (ip), vehicle: saline): 168 % of control | T/C (dose: 75.0 mg/kg/injection, schedule: Q01DX001 (ip), vehicle: Klucel (hydroxypropylcellulose) (HPC)): 107 % of control | T/C (dose: 100.0 mg/kg/injection, schedule: Q01DX001 (ip), vehicle: Klucel (hydroxypropylcellulose) (HPC)): 115 % of control | T/C [1]: 181 % of control (2×) and 195 % of control | T/C (dose: 150.0 mg/kg/injection, schedule: Q04DX003 (ip), vehicle: saline): 272 % of control and 186 % of control | T/C (dose: 400.0 mg/kg/injection, schedule: Q01DX001 (ip), vehicle: Klucel (hydroxypropylcellulose) (HPC)): 168 % of control

[Au].c1ccc(-c2nn[nH]n2)cc1.c1ccc(P(c2ccccc2)c2ccccc2)cc1
T/C (dose: 6.25 mg/kg/injection, schedule: Q01DX009 (ip), vehicle: saline with Tween-80): 104 % of control | T/C (dose: 12.5 mg/kg/injection, schedule: Q01DX009 (ip), vehicle: saline with Tween-80): 106 % of control | T/C [2]: 123 % of control

Cc1cc(O)c(NCCCN(C)C)c2c(=O)c3ccccc3sc12
T/C [3]: 108 % of control | T/C [4]: 115 % of control

COc1cc(Cc2nccc3cc(OC)c(OC)cc23)c(C(C)=O)cc1OC
T/C (dose: 8.0 mg/kg/injection, schedule: Q01DX009 (ip), vehicle: saline): 153 % of control | T/C (dose: 8.2 mg/kg/injection, schedule: Q01DX009 (ip), vehicle: saline sonified): 150 % of control | T/C (dose: 12.5 mg/kg/injection, schedule: Q01DX009 (ip), vehicle: saline sonified): 155 % of control | T/C (dose: 18.75 mg/kg/injection, schedule: Q01DX009 (ip), vehicle: saline sonified): 195 % of control

C=C(C)C1CC=C(/C=N/O)CC1 (stereo not given)
T/C [5]: 100 % of control | T/C [6]: 100 % of control | T/C [7]: 95 % of control

COc1cc(Br)c(/C=C(\C)[N+](=O)[O-])cc1OC
T/C (dose: 100.0 mg/kg/injection, schedule: Q01DX001 (ip), vehicle: saline with Tween-80): 109 % of control | T/C (dose: 200.0 mg/kg/injection, schedule: Q01DX001 (ip), vehicle: saline with Tween-80): 93 % of control

CCOC(=O)C1CSCC1=O (stereo not given)
T/C (dose: 12.5 mg/kg/injection, schedule: Q01DX009 (ip), vehicle: water): 113 % of control | T/C [8]: 113 % of control | T/C [9]: 98 % of control | T/C [10]: 104 % of control | T/C [11]: 95 % of control | T/C (dose: 200.0 mg/kg/injection, schedule: Q04DX003 (ip), vehicle: water): 101 % of control | T/C (dose: 300.0 mg/kg/injection, schedule: Q04DX003 (ip), vehicle: water): 117 % of control | T/C [12]: 101 % of control | T/C (dose: 400.0 mg/kg/injection, schedule: Q04DX003 (ip), vehicle: water): 106 % of control

O=C1CCC2(CCCC2)c2ccccc21
T/C [8]: 95 % of control | T/C [9]: 97 % of control | T/C [10]: 106 % of control | T/C [11]: 103 % of control | T/C [12]: 106 % of control

CC1(c2ccc(Cl)cc2)NC(=O)NC1=O (stereo not given)
T/C (dose: 200.0 mg/kg/injection, schedule: Q04DX003 (ip), vehicle: saline sonified): 91 % of control | T/C (dose: 400.0 mg/kg/injection, schedule: Q04DX003 (ip), vehicle: saline sonified): 87 % of control

NC(=O)CC(NC(=O)OCc1ccccc1)C(=O)OCc1ccccc1 (stereo not given)
T/C [3]: 109 % of control | T/C [13]: 100 % of control | T/C [5]: 99 % of control | T/C [4]: 93 % of control | T/C [6]: 102 % of control | T/C [14]: 103 % of control | T/C [7]: 90 % of control

[Cl][Pb]([Cl])([c]1ccccc1)[c]1ccccc1
T/C [2]: 91 % of control | T/C [3]: 87 % of control | T/C [13]: 97 % of control

O=C(N/N=C/c1ccccc1Cl)c1ccccc1
T/C (dose: 100.0 mg/kg/injection, schedule: Q01DX009 (ip), vehicle: Klucel (hydroxypropylcellulose) (HPC)): 109 % of control | T/C (dose: 200.0 mg/kg/injection, schedule: Q01DX009 (ip), vehicle: Klucel (hydroxypropylcellulose) (HPC)): 118 % of control | T/C (dose: 400.0 mg/kg/injection, schedule: Q01DX009 (ip), vehicle: Klucel (hydroxypropylcellulose) (HPC)): 90 % of control

COC(=O)C[C@](O)(CCC(C)C)C(=O)O[C@@H]1C(OC)=C[C@]23CCCN2CCc2cc4c(cc2[C@H]13)OCO4
T/C (dose: 0.06 mg/kg/injection, schedule: Q01DX010 (ip), vehicle: saline): 118 % of control | T/C (dose: 0.13 mg/kg/injection, schedule: Q01DX010 (ip), vehicle: saline): 109 % of control | T/C (dose: 0.25 mg/kg/injection, schedule: Q01DX010 (ip), vehicle: saline): 118 % of control | T/C (dose: 1.0 mg/kg/injection, schedule: Q01DX010 (ip), vehicle: saline): 155 % of control | T/C (dose: 2.0 mg/kg/injection, schedule: Q01DX010 (ip), vehicle: saline): 180 % of control

CSC(N)=Nc1cccc2c1CCCC2
T/C (dose: 50.0 mg/kg/injection, schedule: Q04DX003 (ip), vehicle: saline): 108 % of control | T/C [1]: 108 % of control

CCC(C)(O)C#CC#CC(C)(O)CC (stereo not given)
T/C (dose: 12.5 mg/kg/injection, schedule: Q01DX009 (ip), vehicle: Klucel (hydroxypropylcellulose) (HPC)): 100 % of control | T/C (dose: 12.5 mg/kg/injection, schedule: Q04DX003 (ip), vehicle: Klucel (hydroxypropylcellulose) (HPC)): 100 % of control | T/C (dose: 25.0 mg/kg/injection, schedule: Q01DX009 (ip), vehicle: Klucel (hydroxypropylcellulose) (HPC)): 100 % of control | T/C (dose: 25.0 mg/kg/injection, schedule: Q04DX003 (ip), vehicle: Klucel (hydroxypropylcellulose) (HPC)): 90 % of control | T/C (dose: 50.0 mg/kg/injection, schedule: Q01DX009 (ip), vehicle: Klucel (hydroxypropylcellulose) (HPC)): 113 % of control | T/C (dose: 50.0 mg/kg/injection, schedule: Q04DX003 (ip), vehicle: Klucel (hydroxypropylcellulose) (HPC)): 95 % of control

CCOC(=O)Nc1cc(NC(C)CCCN(CC)CC)c2ncc(-c3ccc(Cl)c(Cl)c3)nc2n1 (stereo not given) (tested in a mixture with another compound)
T/C (dose: 6.25 mg/kg/injection, schedule: Q01DX009 (ip), vehicle: saline): 109 % of control | T/C (dose: 6.25 mg/kg/injection, schedule: Q04DX003 (ip), vehicle: saline): 95 % of control | T/C (dose: 12.5 mg/kg/injection, schedule: Q01DX009 (ip), vehicle: saline): 100 % of control | T/C (dose: 12.5 mg/kg/injection, schedule: Q04DX003 (ip), vehicle: saline): 95 % of control | T/C (dose: 25.0 mg/kg/injection, schedule: Q01DX009 (ip), vehicle: saline): 104 % of control | T/C (dose: 25.0 mg/kg/injection, schedule: Q04DX003 (ip), vehicle: saline): 104 % of control

NC1=NC(=O)NC1(c1ccccc1)c1ccccc1
T/C [3]: 107 % of control | T/C [13]: 91 % of control | T/C [4]: 90 % of control | T/C [14]: 94 % of control

Cc1ccc(S(=O)(=O)Oc2cc([N+](=O)[O-])ccc2N)cc1
T/C (dose: 100.0 mg/kg/injection, schedule: Q01DX001 (ip), vehicle: saline): 109 % of control | T/C (dose: 200.0 mg/kg/injection, schedule: Q01DX001 (ip), vehicle: saline): 100 % of control | T/C (dose: 400.0 mg/kg/injection, schedule: Q01DX001 (ip), vehicle: saline): 104 % of control

CCOC1NC(C)(C)CO1 (stereo not given)
T/C [1]: 100 % of control | T/C (dose: 200.0 mg/kg/injection, schedule: Q04DX003 (ip), vehicle: saline): 91 % of control | T/C (dose: 400.0 mg/kg/injection, schedule: Q04DX003 (ip), vehicle: saline): 95 % of control

O=C(O)/C=C/C(=O)Nc1ccc(I)cc1
T/C [3]: 109 % of control | T/C [13]: 109 % of control | T/C [4]: 104 % of control
